Assay type in all cases: in vivo
In one data set the test system is Rice (Oryza sativa). Nature of the data set: Test Example 3 paddy field treatment, crop phytotoxicity. The note with it: Table 6, paddy field treatment, transplanted rice, active ingredient 1 kg per hectare, 21st day after dropping, index 0-5. The method in brief: (§1)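 Weed seeds sown in puddled paddy soil under 4 cm water, with two-leaf Koshihikari rice transplanted; 10 days later a wettable powder was applied to the water surface at 1 kg active ingredient/ha. Scored 21 days after application on a 0–5 scale (0 = <10%, 5 = ≥90% herbicidal effect or phytotoxicity).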

Data set [1] relates to Setaria viridis. Description: Test Example 2 upland soil treatment. Particulars: Table 5, upland soil treatment, index 0-5. The method in brief:
(§2)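 Pre-emergence soil application the day after sowing, active ingredient at 1 kg per hectare as diluted wettable powder, seeds covered with about 1 cm soil. Assessed 21 days after application on a 0–5 scale (5 = ≥90% herbicidal effect or phytotoxicity; 0 = <10%).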

Data set [2] deals with Digitaria adscendens. Nature of the data set: Test Example 2 upland soil treatment. Particulars: Table 5, upland soil treatment, index 0-5. The method in brief: as §2
In data set [3] the test system is Chenopodium album. Description: Test Example 2 upland soil treatment. Particulars: Table 5, upland soil treatment, index 0-5. The method in brief: as §2
Data set [4] concerns Stellaria media. Nature of the data set: Test Example 2 upland soil treatment. Particulars: Table 5, upland soil treatment, index 0-5. The method in brief: as §2
Data set [5] has as its system Setaria viridis. Nature of the data set: Test Example 1 upland field foliage treatment. Particulars: Table 4, upland field foliage treatment, index 0-5. The method in brief:
(§3)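 Post-emergence foliar spray of water-diluted wettable powder at 1 kg active ingredient per hectare, applied 14 days after sowing in upland soil. Weed control or crop phytotoxicity rated 21 days later on a 0–5 scale (5: ≥90%, 0: <10%).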

Data set [6] relates to Digitaria adscendens. Nature of the data set: Test Example 1 upland field foliage treatment. The note with it: Table 4, upland field foliage treatment, index 0-5. The method in brief:
as §3

Data set [7] deals with Chenopodium album. Nature of the data set: Test Example 1 upland field foliage treatment. Particulars: Table 4, upland field foliage treatment, index 0-5. The method in brief: as §3
Data set [8] relates to Stellaria media. Nature of the data set: Test Example 1 upland field foliage treatment. Particulars: Table 4, upland field foliage treatment, index 0-5. The method in brief:
as §3

The test system of a further data set is Echinochloa crusgalli. Description: Test Example 3 paddy field treatment. The note with it: Table 6, paddy field treatment, active ingredient 1 kg per hectare, 21st day after dropping, index 0-5. The method in brief:
as §1

The next data set concerns Scirpus juncoides. Description: Test Example 3 paddy field treatment. Particulars: Table 6, paddy field treatment, active ingredient 1 kg per hectare, 21st day after dropping, index 0-5. The method in brief: as §1
In a further data set the test system is Ammannia multiflora. Nature of the data set: Test Example 3 paddy field treatment. The note with it: Table 6, paddy field treatment, active ingredient 1 kg per hectare, 21st day after dropping, index 0-5. The method in brief:
as §1

In another data set the test system is Monochoria vaginalis. Nature of the data set: Test Example 3 paddy field treatment. Particulars: Table 6, paddy field treatment, active ingredient 1 kg per hectare, 21st day after dropping, index 0-5. The method in brief:
as §1

Data set [9] has as its system wheat (Triticum aestivum). Nature of the data set: Test Example 1 upland field foliage treatment, crop phytotoxicity. Particulars: Table 4, upland field foliage treatment, index 0-5. The method in brief:
as §3

Data set [10] concerns soybean (Glycine max). Described as above. Particulars: Table 4, upland field foliage treatment, index 0-5. The method in brief: as §3
For data set [11], the system named is wheat (Triticum aestivum). Nature of the data set: Test Example 2 upland soil treatment, crop phytotoxicity. The note with it: Table 5, upland soil treatment, index 0-5. The method in brief: as §2
Data set [12] concerns soybean (Glycine max). The description is as above. The note with it: Table 5, upland soil treatment, index 0-5. The method in brief:
as §2

The values that follow come from patent US7192906B2, “Substituted pyrazole derivatives, production process thereof, and herbicide compositions containing the derivatives” (SDS Biotech K.K., priority 2001, dated 2007).

In the case of `CNC(=O)C(Cn1cc(C)c(-c2ccc(OC(F)F)cc2)n1)=NOC` [Compound 65], in the data set on Rice (Oryza sativa), the “Herbicidal activity (phytotoxicity) OS” value was 0 (herbicidal effect of not less than 0% and less than 10%, or phytotoxicity of 0% or more and less than 10%). For the same compound, the “Herbicidal activity SV: Setaria viridis” value is recorded as 5 (herbicidal effect of not less than 90%, or phytotoxicity of 90% or more) with Setaria viridis [1] and 5 (herbicidal effect of not less than 90%, or phytotoxicity of 90% or more) in the data set on Setaria viridis [5]. Besides, the “Herbicidal activity DA: Digitaria adscendens” value (“Herbicidal activity DA” below) is listed as 5 (herbicidal effect of not less than 90%, or phytotoxicity of 90% or more) in the data set on Digitaria adscendens [2] and 5 (herbicidal effect of not less than 90%, or phytotoxicity of 90% or more) with Digitaria adscendens [6]. The “Herbicidal activity CA: Chenopodium album” value (from here on “Herbicidal activity CA”) is on record as 5 (herbicidal effect of not less than 90%, or phytotoxicity of 90% or more) in the data set on Chenopodium album [3] and 5 (herbicidal effect of not less than 90%, or phytotoxicity of 90% or more) in the data set with Chenopodium album [7]. Also, the “Herbicidal activity SM: Stellaria media” value was 5 (herbicidal effect of not less than 90%, or phytotoxicity of 90% or more) in the data set on Stellaria media [4] and 5 (herbicidal effect of not less than 90%, or phytotoxicity of 90% or more) with Stellaria media [8]. Besides, the “Herbicidal activity EC” value in the data set on Echinochloa crusgalli was 5 (herbicidal effect of not less than 90%, or phytotoxicity of 90% or more). In addition, in the data set with Scirpus juncoides, the “Herbicidal activity SJ” value is reported as 5 (herbicidal effect of not less than 90%, or phytotoxicity of 90% or more). The “Herbicidal activity AM” value in the data set on Ammannia multiflora is 5 (herbicidal effect of not less than 90%, or phytotoxicity of 90% or more). In addition, the “Herbicidal activity MV” value in the data set with Monochoria vaginalis is on record as 5 (herbicidal effect of not less than 90%, or phytotoxicity of 90% or more). Moreover, the “Herbicidal activity (phytotoxicity) TA: Wheat (Triticum aestivum)” value (“Herbicidal activity (phytotoxicity) TA” for short) in data set [9] was 0 (herbicidal effect of not less than 0% and less than 10%, or phytotoxicity of 0% or more and less than 10%); in data set [11] it was 0 (herbicidal effect of not less than 0% and less than 10%, or phytotoxicity of 0% or more and less than 10%). Further, the “Herbicidal activity (phytotoxicity) GM: Soybean (Glycine max)” value (“Herbicidal activity (phytotoxicity) GM” for short) in the data set with soybean (Glycine max) [10] is 0 (herbicidal effect of not less than 0% and less than 10%, or phytotoxicity of 0% or more and less than 10%); in the data set with soybean (Glycine max) [12], 0 (herbicidal effect of not less than 0% and less than 10%, or phytotoxicity of 0% or more and less than 10%).

As to `CNC(=O)C(Cn1cc(C)c(-c2ccc(OC(F)(F)CF)cc2)n1)=NOC` [Compound 67], the “Herbicidal activity (phytotoxicity) OS” value in the data set on Rice (Oryza sativa) is 0 (herbicidal effect of not less than 0% and less than 10%, or phytotoxicity of 0% or more and less than 10%). Further, the “Herbicidal activity SV: Setaria viridis” value was 4 (herbicidal effect of not less than 70% and less than 90%, or phytotoxicity of 70% or more and less than 90%) in the data set with Setaria viridis [1]; 4 (herbicidal effect of not less than 70% and less than 90%, or phytotoxicity of 70% or more and less than 90%) in the data set with Setaria viridis [5]. The “Herbicidal activity DA” value was 4 (herbicidal effect of not less than 70% and less than 90%, or phytotoxicity of 70% or more and less than 90%) in the data set on Digitaria adscendens [2]; 5 (herbicidal effect of not less than 90%, or phytotoxicity of 90% or more) with Digitaria adscendens [6]. In addition, the “Herbicidal activity CA” value in the data set on Chenopodium album [3] was 5 (herbicidal effect of not less than 90%, or phytotoxicity of 90% or more); in the data set on Chenopodium album [7], 5 (herbicidal effect of not less than 90%, or phytotoxicity of 90% or more). For the same compound, the “Herbicidal activity SM: Stellaria media” value was 5 (herbicidal effect of not less than 90%, or phytotoxicity of 90% or more) in the data set on Stellaria media [4]; 4 (herbicidal effect of not less than 70% and less than 90%, or phytotoxicity of 70% or more and less than 90%) with Stellaria media [8]. The “Herbicidal activity EC” value in the data set on Echinochloa crusgalli is on record as 5 (herbicidal effect of not less than 90%, or phytotoxicity of 90% or more). Further, in the data set with Scirpus juncoides, the “Herbicidal activity SJ” value was 5 (herbicidal effect of not less than 90%, or phytotoxicity of 90% or more). Further, the “Herbicidal activity AM” value in the data set on Ammannia multiflora was 4 (herbicidal effect of not less than 70% and less than 90%, or phytotoxicity of 70% or more and less than 90%). Also, the “Herbicidal activity MV” value in the data set with Monochoria vaginalis is on record as 5 (herbicidal effect of not less than 90%, or phytotoxicity of 90% or more). Moreover, the “Herbicidal activity (phytotoxicity) TA” value in data set [9] was 0 (herbicidal effect of not less than 0% and less than 10%, or phytotoxicity of 0% or more and less than 10%); in data set [11], 0 (herbicidal effect of not less than 0% and less than 10%, or phytotoxicity of 0% or more and less than 10%). The “Herbicidal activity (phytotoxicity) GM” value was 0 (herbicidal effect of not less than 0% and less than 10%, or phytotoxicity of 0% or more and less than 10%) in the data set with soybean (Glycine max) [10]; 0 (herbicidal effect of not less than 0% and less than 10%, or phytotoxicity of 0% or more and less than 10%) in the data set with soybean (Glycine max) [12].

As for `CNC(=O)C(Cn1cc(C)c(-c2ccc(F)c(OC)c2)n1)=NOC` [Compound 77], the “Herbicidal activity (phytotoxicity) OS” value in the data set with Rice (Oryza sativa) is 0 (herbicidal effect of not less than 0% and less than 10%, or phytotoxicity of 0% or more and less than 10%). Further, the “Herbicidal activity SV: Setaria viridis” value is 4 (herbicidal effect of not less than 70% and less than 90%, or phytotoxicity of 70% or more and less than 90%) in the data set on Setaria viridis [1]; 3 (herbicidal effect of not less than 50% and less than 70%, or phytotoxicity of 50% or more and less than 70%) in the data set with Setaria viridis [5]. In addition, the “Herbicidal activity DA” value with Digitaria adscendens [2] was 5 (herbicidal effect of not less than 90%, or phytotoxicity of 90% or more); with Digitaria adscendens [6] it was 5 (herbicidal effect of not less than 90%, or phytotoxicity of 90% or more). Further, the “Herbicidal activity CA” value is given as 5 (herbicidal effect of not less than 90%, or phytotoxicity of 90% or more) in the data set with Chenopodium album [3] and 5 (herbicidal effect of not less than 90%, or phytotoxicity of 90% or more) in the data set with Chenopodium album [7]. The “Herbicidal activity SM: Stellaria media” value with Stellaria media [4] is 5 (herbicidal effect of not less than 90%, or phytotoxicity of 90% or more); in the data set on Stellaria media [8], 3 (herbicidal effect of not less than 50% and less than 70%, or phytotoxicity of 50% or more and less than 70%). The “Herbicidal activity EC” value with Echinochloa crusgalli is listed as 5 (herbicidal effect of not less than 90%, or phytotoxicity of 90% or more). Besides, the “Herbicidal activity SJ” value in the data set on Scirpus juncoides is on record as 5 (herbicidal effect of not less than 90%, or phytotoxicity of 90% or more). In the data set on Ammannia multiflora, the “Herbicidal activity AM” value is 5 (herbicidal effect of not less than 90%, or phytotoxicity of 90% or more). For the same compound, the “Herbicidal activity MV” value in the data set on Monochoria vaginalis is reported as 5 (herbicidal effect of not less than 90%, or phytotoxicity of 90% or more). For the same compound, the “Herbicidal activity (phytotoxicity) TA” value in data set [9] is 0 (herbicidal effect of not less than 0% and less than 10%, or phytotoxicity of 0% or more and less than 10%); in data set [11], 0 (herbicidal effect of not less than 0% and less than 10%, or phytotoxicity of 0% or more and less than 10%). Also, the “Herbicidal activity (phytotoxicity) GM” value with soybean (Glycine max) [10] is 0 (herbicidal effect of not less than 0% and less than 10%, or phytotoxicity of 0% or more and less than 10%); in the data set with soybean (Glycine max) [12], 0 (herbicidal effect of not less than 0% and less than 10%, or phytotoxicity of 0% or more and less than 10%).
